# Assay results reported in patent US20160237059A1, “HETEROCYCLIC SUBSTITUTED TRIFLUOROMETHYL PYRIMIDINONES AND THEIR USE” (BAYER PHARMA AKTIENGESELLSCHAFT, priority 2013, published 2016).
# Legend:
# human CCR2 = target: T1, human CCR2 (Homo sapiens, UniProt P41597); assay: Functional Ca2+ release test (B-1); format: cell-based; conditions: Chem-1 cell line transfected with human CCR2; 50% inhibition of the MCP-1 effect, MCP-1 at EC50 (about 5 nM); in some cases means of several determinations
# T1 construct: host or cells: Chem-1 cell line
# T1 sequence (P41597 1-360 isoform P41597-2): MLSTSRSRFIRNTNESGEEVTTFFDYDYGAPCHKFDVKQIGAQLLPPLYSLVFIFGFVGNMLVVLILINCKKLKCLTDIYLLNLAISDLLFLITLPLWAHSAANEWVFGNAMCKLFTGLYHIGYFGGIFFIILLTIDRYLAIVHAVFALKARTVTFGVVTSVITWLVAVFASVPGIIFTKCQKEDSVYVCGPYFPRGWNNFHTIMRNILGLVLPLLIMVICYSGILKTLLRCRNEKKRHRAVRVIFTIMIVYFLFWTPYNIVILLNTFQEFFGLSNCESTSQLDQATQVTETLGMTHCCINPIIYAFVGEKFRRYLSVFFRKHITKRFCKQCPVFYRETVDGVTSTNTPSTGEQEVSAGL
# Method in brief: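 Chem-1 cells expressing human CCR2, loaded with Fluo-4 for 60 min at 37° C, were preincubated 10 min with compound (10-point, 1:3.16 dilutions), then stimulated with MCP-1 at its predetermined EC50 (about 5 nM). Ca2+ release was monitored for 120 s. IC50 came from a 4-parameter Hill fit.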
# murine CCR2 = target: T2, murine CCR2 (Mus musculus, UniProt P51683); assay: Functional β-arrestin recruiting test with murine MCP-1 (B-2b); format: cell-based; conditions: U2OS β-arrestin cell line transfected with murine CCR2; agonist murine MCP-1; in some cases means of several determinations
# T2 construct: host or cells: U2OS β-arrestin cell line
# Method in brief: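 In a PathHunter β-galactosidase complementation assay, U2OS cells expressing murine CCR2 were preincubated 10 min with compound (10-point, 1:3.16 dilutions), then challenged with murine MCP-1 at its predetermined EC50 for 90 min at 37 °C. Luminescence was read after 60 min, and IC50 was fitted with a 4-parameter Hill function.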
# T2 sequence (P51683 whole entry): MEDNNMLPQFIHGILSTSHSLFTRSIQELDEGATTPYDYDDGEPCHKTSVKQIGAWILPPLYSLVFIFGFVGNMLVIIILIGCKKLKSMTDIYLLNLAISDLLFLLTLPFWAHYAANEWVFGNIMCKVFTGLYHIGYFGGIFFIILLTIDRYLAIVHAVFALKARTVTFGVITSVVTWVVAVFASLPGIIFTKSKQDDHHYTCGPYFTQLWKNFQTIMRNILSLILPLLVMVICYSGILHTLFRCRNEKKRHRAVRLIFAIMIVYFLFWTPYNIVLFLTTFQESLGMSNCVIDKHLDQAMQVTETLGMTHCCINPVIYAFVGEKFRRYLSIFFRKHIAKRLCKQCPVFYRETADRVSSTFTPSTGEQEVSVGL
Structure (SMILES),IC50 (human CCR2),IC50 (murine CCR2)
"COc1conc1-c1nc(C(F)(F)F)c(Oc2ccc(Cl)c(Cl)c2)c(=O)[nH]1 [Example 179, 5-(3,4-dichlorophenoxy)-2-(4-methoxy-1,2-oxazol-3-yl)-6-(trifluoromethyl)pyrimidin-4(3H)-one]",1.8 nM,73 nM
"COc1conc1-c1nc(C(F)(F)F)c(Oc2ccc(Cl)c(C(F)(F)F)c2)c(=O)[nH]1 [Example 180, 5-[4-chloro-3-(trifluoromethyl)phenoxy]-2-(4-methoxy-1,2-oxazol-3-yl)-6-(trifluoromethyl)pyrimidin-4(3H)-one]",1 nM,105 nM
"O=c1[nH]c(-c2ncccc2Br)nc(C(F)(F)F)c1Oc1ccc(Cl)c(Cl)c1 [Example 181, 2-(3-bromopyridin-2-yl)-5-(3,4-dichlorophenoxy)-6-(trifluoromethyl)pyrimidin-4(3H)-one]",0.7 nM,7.9 nM
"O=c1[nH]c(-c2ncccc2Br)nc(C(F)(F)F)c1Oc1ccc(Cl)c(C(F)(F)F)c1 [Example 182, 2-(3-bromopyridin-2-yl)-5-[4-chloro-3-(trifluoromethyl)phenoxy]-6-(trifluoromethyl)pyrimidin-4(3H)-one]",0.3 nM,8.4 nM
"COc1cc(C)nc(-c2nc(C(F)(F)F)c(Oc3ccc(Cl)c(Cl)c3)c(=O)[nH]2)n1 [Example 183, 5-(3,4-dichlorophenoxy)-4′-methoxy-6′-methyl-6-(trifluoromethyl)-2,2′-bipyrimidin-4(3H)-one]",2.9 nM,145 nM
"COc1cc(C)nc(-c2nc(C(F)(F)F)c(Oc3ccc(Cl)c(C(F)(F)F)c3)c(=O)[nH]2)n1 [Example 184, 5-[4-chloro-3-(trifluoromethyl)phenoxy]-4′-methoxy-6′-methyl-6-(trifluoromethyl)-2,2′-bipyrimidin-4(3H)-one]",0.8 nM,221 nM
"O=c1[nH]c(-c2ncccc2C(F)(F)F)nc(C(F)(F)F)c1Oc1ccc(Cl)c(Cl)c1 [Example 185, 5-(3,4-dichlorophenoxy)-6-(trifluoromethyl)-2-[3-(trifluoromethyl)pyridin-2-yl]pyrimidin-4(3H)-one]",27 nM,405 nM
"O=c1[nH]c(-c2ncccc2C(F)(F)F)nc(C(F)(F)F)c1Oc1ccc(Cl)c(C(F)(F)F)c1 [Example 186, 5-[4-chloro-3-(trifluoromethyl)phenoxy)-6-(trifluoromethyl)-2-[3-(trifluoromethyl)pyridin-2-yl]pyrimidin-4(3H)-one]",4.8 nM,513 nM
"O=c1[nH]c(-c2ncccc2-c2ccccc2)nc(C(F)(F)F)c1Oc1ccc(Cl)c(Cl)c1 [Example 187, 5-(3,4-dichlorophenoxy)-2-(3-phenylpyridin-2-yl)-6-(trifluoromethyl)pyrimidin-4(3H)-one]",16 nM,1600 nM
"O=c1[nH]c(-c2ncccc2-c2ccccc2)nc(C(F)(F)F)c1Oc1ccc(Cl)c(C(F)(F)F)c1 [Example 188, 5-[4-chloro-3-(trifluoromethyl)phenoxy]-2-(3-phenylpyridin-2-yl)-6-(trifluoromethyl)pyrimidin-4(3H)-one]",1.5 nM,828 nM
CC(C)(C)Sc1cccnc1-c1nc(C(F)(F)F)c(Oc2ccc(Cl)c(Cl)c2)c(=O)[nH]1 [Example 189],53 nM,1030 nM
CC(C)(C)Sc1cccnc1-c1nc(C(F)(F)F)c(Oc2ccc(Cl)c(C(F)(F)F)c2)c(=O)[nH]1 [Example 190],62 nM,2110 nM
"CSc1ccnc(-c2nc(C(F)(F)F)c(Oc3ccc(Cl)c(C(F)(F)F)c3)c(=O)[nH]2)c1 [Example 191, 5-[4-chloro-3-(trifluoromethyl)phenoxy)-2-[4-(methylsulphanyl)pyridin-2-yl]-6-(trifluoromethyl)pyrimidin-4(3H)-one]",5 nM,693 nM
"CSc1ccnc(-c2nc(C(F)(F)F)c(Oc3ccc(Cl)c(Cl)c3)c(=O)[nH]2)c1 [Example 192, 5-(3,4-dichlorophenoxy)-2-[4-(methylsulphanyl)pyridin-2-yl]-6-(trifluoromethyl)pyrimidin-4(3H)-one]",11 nM,758 nM
"Cc1ccc(-c2nc(C(F)(F)F)c(Oc3ccc(Cl)c(C(F)(F)F)c3)c(=O)[nH]2)nc1 [Example 193, 5-[4-chloro-3-(trifluoromethyl)phenoxy]-2-(5-methylpyridin-2-yl)-6-(trifluoromethyl)pyrimidin-4(3H)-one]",0.7 nM,79 nM
"COc1cccnc1-c1nc(C(F)(F)F)c(Oc2ccc(Cl)c(C)c2)c(=O)[nH]1 [Example 194, 5-(4-chloro-3-methylphenoxy)-2-(3-methoxypyridin-2-yl)-6-(trifluoromethyl)pyrimidin-4(3H)-one]",0.3 nM,59 nM
"O=c1[nH]c(-c2ccc(Cl)cn2)nc(C(F)(F)F)c1Oc1ccc(Cl)c(C(F)(F)F)c1 [Example 195, 2-(5-chloropyridin-2-yl)-5-[4-chloro-3-(trifluoromethyl)phenoxy]-6-(trifluoromethyl)pyrimidin-4(3H)-one]",1.1 nM,157 nM
"COc1cccnc1-c1nc(C(F)(F)F)c(Oc2ccc(C)c(Cl)c2)c(=O)[nH]1 [Example 196, 5-(3-chloro-4-methylphenoxy)-2-(3-methoxypyridin-2-yl)-6-(trifluoromethyl)pyrimidin-4(3H)-one]",1.7 nM,585 nM
"Cc1cc(Oc2c(C(F)(F)F)nc(-c3ncccc3Cl)[nH]c2=O)ccc1Cl [Example 197, 5-(4-chloro-3-methylphenoxy)-2-(3-chloropyridin-2-yl)-6-(trifluoromethyl)pyrimidin-4(3H)-one]",1.3 nM,83 nM

Structure (SMILES),IC50 (human CCR2),IC50 (murine CCR2)
CC(=O)Nc1ccc(-c2nc(C(F)(F)F)c(Oc3ccc(Cl)c(C(F)(F)F)c3)c(=O)[nH]2)nc1 [Example 199],0.6 nM,110 nM
CN(C)c1ccc(-c2nc(C(F)(F)F)c(Oc3ccc(Cl)c(Cl)c3)c(=O)[nH]2)nn1 [Example 200],1.2 nM,359 nM
CN(C)c1ccc(-c2nc(C(F)(F)F)c(Oc3ccc(Cl)c(C(F)(F)F)c3)c(=O)[nH]2)nn1 [Example 201],0.7 nM,300 nM
CC(=O)Nc1ccc(-c2nc(C(F)(F)F)c(Oc3ccc(Cl)c(Cl)c3)c(=O)[nH]2)nc1 [Example 202],0.9 nM,212 nM
O=c1[nH]c(-c2ncccc2OC(F)(F)F)nc(C(F)(F)F)c1Oc1ccc(Cl)c(Cl)c1 [Example 203],15 nM,423 nM
O=c1[nH]c(-c2ncccc2OC(F)(F)F)nc(C(F)(F)F)c1Oc1ccc(Cl)c(C(F)(F)F)c1 [Example 204],9.2 nM,282 nM
Cn1nc(-c2nc(C(F)(F)F)c(Oc3ccc(Cl)c(Cl)c3)c(=O)[nH]2)c2cccnc21 [Example 205],26 nM,2490 nM
Cn1nc(-c2nc(C(F)(F)F)c(Oc3ccc(Cl)c(C(F)(F)F)c3)c(=O)[nH]2)c2cccnc21 [Example 206],12 nM,1990 nM
COc1ccc2c(-c3nc(C(F)(F)F)c(Oc4ccc(Cl)c(C(F)(F)F)c4)c(=O)[nH]3)noc2c1 [Example 207],81 nM,4490 nM
COc1ccc2c(-c3nc(C(F)(F)F)c(Oc4ccc(Cl)c(Cl)c4)c(=O)[nH]3)noc2c1 [Example 208],77 nM,9580 nM
CC(=O)Nc1ccc2c(-c3nc(C(F)(F)F)c(Oc4ccc(Cl)c(C(F)(F)F)c4)c(=O)[nH]3)noc2c1 [Example 209],22 nM,368 nM
O=c1[nH]c(-c2ncccc2Cl)nc(C(F)(F)F)c1Oc1ccc(Cl)cc1 [Example 210],3 nM,349 nM
O=c1[nH]c(-c2ncccc2Cl)nc(C(F)(F)F)c1Cc1ccc(Cl)cc1 [Example 211],1.5 nM,299 nM
Cc1cnc(-c2nc(C(F)(F)F)c(Oc3ccc(Cl)c(Cl)c3)c(=O)[nH]2)cc1C [Example 212],2.6 nM,1700 nM
COc1c[nH]nc1-c1nc(C(F)(F)F)c(Oc2ccc(Cl)c(Cl)c2)c(=O)[nH]1 [Example 213],0.6 nM,49 nM
"COc1c[nH]nc1-c1nc(C(F)(F)F)c(Oc2ccc(Cl)c(C(F)(F)F)c2)c(=O)[nH]1 [Example 214, 5-[4-chloro-3-(trifluoromethyl)phenoxy)-2-(4-methoxy-1H-pyrazol-3-yl)-6-(trifluoromethyl)pyrimidin-4(3H)-one]",0.6 nM,8.5 nM
CCCc1cc(-c2nc(C(F)(F)F)c(Oc3ccc(Cl)c(Cl)c3)c(=O)[nH]2)no1 [Example 215],7.9 nM,1150 nM
CCCc1cc(-c2nc(C(F)(F)F)c(Oc3ccc(Cl)c(C(F)(F)F)c3)c(=O)[nH]2)no1 [Example 216],4.6 nM,1320 nM
CCc1cc(-c2nc(C(F)(F)F)c(Oc3ccc(Cl)c(C(F)(F)F)c3)c(=O)[nH]2)no1 [Example 217],1.8 nM,874 nM
